Data taken from patent US20210386367A1, “DEVICES AND SYSTEMS FOR GASTROINTESTINAL MICROBIOME DETECTION AND MANIPULATION” (Progenity, Inc., priority 2018, published 2021).
Values after ≈ are worked out from the molar mass of the structure shown. Where two headings read alike, the source gives them in different places.

Tests used:
[1] = test system: Bacteroides spp. spontaneous mutants; settings: B. fragilis ATCC 25285; CLSI QC range shown in parentheses; cited from earlier work
B. fragilis ATCC 25285 [2] = settings: B. fragilis MMX 123 ATCC 25285; cited from earlier work
[3] = test system: Clostridium spp. clinical isolates; assay: MIC distribution against clinical isolates; assay type: cell-based; settings: 10 Clostridium spp. isolates
Excerpt: (n=4 C. sporogenes, n=2 C. ramosum and n=4 C. innocuum) clinical isolates (μg/mL).
As used herein, “minimum inhibitory concentration” or “MIC” refers to the lowest concentration of an antimicrobial agent, for example, an antimicrobial agent as described herein, required to inhibit the growth of an organism. […] “MIC90” represents the MIC value at which ≥90% of the strains within a test population are inhibited; the 90th percentile.
Many susceptibility testing methods are known in the art and can be used as described herein (see, e.g., Jorgensen and Ferraro (2009) Clinical Infectious Diseases 49:1749-1755; and Maurer et al. (2017) Infectious Disease Reports 9:6839; the entire contents of each of the foregoing are incorporated herein by reference). For example, antimicrobial susceptibility can be determined using conventional culture based methods such as the broth or agar dilution test. In these dilution tests, the bacterial isolate of interest is inoculated onto different media that include serial dilutions of an antimicrobial agent, and incubated under appropriate conditions (e.g., overnight at 37° C.) to allow for growth to occur. Following the incubation period, the media is examined to determine bacterial growth. The lowest concentration of antibiotic that prevents growth represents the minimal inhibitory concentration (MIC). Broth dilution tests can be miniaturized and mechanized allowing for reproducibility and high throughput.

B. fragilis = assay: Spontaneous mutation frequency and mutation prevention concentration (MPC); assay type: cell-based; settings: B. fragilis ATCC 25285
Excerpt: (§1) As used herein, “spontaneous mutation frequency” refers to the rate at which mutations arise in a bacterium that can lead to resistance to develop to an antimicrobial agent. “Mutation prevention concentration” or “MPC” refers to the lowest concentration of antimicrobial agent above which the selective proliferation of resistant mutants is expected to occur only rarely.

B. ovatus = assay: as above; assay type: cell-based; settings: B. ovatus MMX 3503
Excerpt: as §1

B. fragilis ATCC 25285 [4] = assay: Time-kill assay; assay type: cell-based, Bacteroides fragilis; settings: 2×, 4×, 8× MIC; 2, 6, 24, 48 hr
B. ovatus MMX 3503 = assay: Time-kill assay; assay type: cell-based, Bacteroides ovatus; settings: for time-kill kinetics outcome (bactericidal = ≥3 log reduction in CFU per mL): 2×, 4×, 8× MIC, 2, 6, 24, 48 hr
Bacteroides spp. [5] = assay: Spontaneous mutation frequency assay; assay type: cell-based
Procedure: Initial values of the MIC were determined by agar dilution in accordance with guidelines from the Clinical and Laboratory Standards Institute (CLSI; (1) “Methods for Dilution Antimicrobial Susceptibility Tests for Bacteria That Grow Aerobically; Approved Standard; 11th ed.,” CLSI standard M07, 2018; (2) “Methods for Antimicrobial Susceptibility Testing of Anaerobic Bacteria; Approved Standard—Eighth Edition,” CLSI document M11-A8, 2012.).
The agar plates were prepared by mixing a ratio of 1.0 mL of concentrated drug to 49.0 mL of the appropriate molten (47° C.) agar; the drug-supplemented agar was mixed, poured into 15-by-150 mm petri dishes and allowed to solidify and dry at room temperature prior to inoculation. […] Each plate was allowed to cool at room temperature for at least 1 hr.
The isolates were streaked onto the appropriate agar medium and incubated for 20 hr (aerobes) or 48 hr (Bacteroides under anaerobic conditions). Using a sterile swab, several well-isolated colonies were removed and resuspended in sterile saline at a heavy cell density. Each plate was inoculated with 0.5 mL of the cell suspension (each test concentration was inoculated in duplicate). The target inoculum for each spontaneous mutation plate was 10^9-10 CFU. In addition, a portion of the inoculum from each isolate was enumerated by making dilutions, spreading on agar and counting colonies.
Once the inoculum was absorbed into the agar, the plates were incubated at 35° C. Aerobes were examined at 24 and 48 hr, and resulting colonies were counted. Bacteroides were incubated anaerobically for 48-72 hr in the anaerobe chamber and colonies were counted.
Colony counts from plates used to enumerate the initial inoculum density and from the resulting spontaneous mutation frequency test plates were determined. The inoculum size was calculated as CFU inoculated per plate. The spontaneous mutation frequency was calculated using the counts from duplicate spontaneous mutation assay test plates as follows:
If there were no colonies on the antibiotic selection plates, the spontaneous mutation frequency was reported as less than the frequency observed with one colony to indicate that the spontaneous mutation frequency was less than the limit of detection (one CFU). […] The mutation prevention concentration (MPC) was reported as the lowest concentration for which no mutants were selected.

E. coli ATCC 25922 = settings: cited from earlier work
[6] = test system: E. coli (ATCC 25922, ATCC 35218, MMX 1312); settings: cited from earlier work
[7] = test system: Streptococcus spp. (S. pneumoniae ATCC 49619, S. pyogenes ATCC 49399, S. agalactiae ATCC 13813); settings: cited from earlier work
[8] = test system: Bacteroides spp. (B. fragilis ATCC 25285, B. vulgatus, B. ovatus MMX 3503); settings: cited from earlier work
Enterobacteriaceae [9] = settings: cited from earlier work
Enterobacteriaceae [10] = settings: cited from earlier work; remark: listed apart in the source
[11] = in vivo, cited from earlier work
Bacteroides spp. [12] = settings: cited from earlier work
[13] = rifaximin selection 4X MIC, 1 μg/mL
[14] = rifaximin selection 8X MIC, 2 μg/mL
[15] = rifaximin selection 4X MIC, 2 μg/mL
[16] = rifaximin selection 8X MIC, 4 μg/mL

## Cc1ncc([N+](=O)[O-])n1CCO [MTZ]
[1]
  MIC, CLSI QC range: (0.25-2) μg/mL

## piperacillin/tazobactam [piperacillin-tazobactam]
B. fragilis ATCC 25285 [2]
  CLSI QC range (MIC): (4-16) μg/mL

## CO[C@H]1/C=C/O[C@@]2(C)Oc3c(C)c(O)c4c(O)c(c5c(nc6cc(C)ccn65)c4c3C2=O)NC(=O)/C(C)=C\C=C\[C@H](C)[C@H](O)[C@@H](C)[C@@H](O)[C@@H](C)[C@H](OC(C)=O)[C@@H]1C [rifaximin]
[3]; MIC 8 μg/mL
  Cumulative percentage of isolates inhibited at MIC: 20.0%
  Number of test isolates at MIC: 1
B. fragilis
  MFC: >2 µg/mL
B. fragilis; [13]
  Average Count: 11 CFU
  Count 1: 12 CFU
  Count 2: 10 CFU
  Spontaneous Mutation Frequency: 1.63 × 10^−9
B. fragilis; [14]
  Average Count: 8 CFU
  Count 1: 6 CFU
  Count 2: 9 CFU
  Spontaneous Mutation Frequency: 1.19 × 10^−9
B. ovatus
  MFC: >4 µg/mL
B. ovatus; [15]
  Average Count: 34 CFU
  Count 1: 31 CFU
  Count 2: 37 CFU
  Spontaneous Mutation Frequency: 3.58 × 10^−9
B. ovatus; [16]
  Average Count: 27 CFU
  Count 1: 28 CFU
  Count 2: 25 CFU
  Spontaneous Mutation Frequency: 2.84 × 10^−9
B. fragilis ATCC 25285 [4]
  time-kill kinetics outcome (bactericidal = ≥3 log reduction in CFU per mL): did not show evidence of killing
B. ovatus MMX 3503
  time-kill kinetics outcome (bactericidal = ≥3 log reduction in CFU per mL): rebounded to no-drug control levels at later time points
B. ovatus MMX 3503; 6 hr
  rapid killing: ~2 log10 CFU

## C[C@@H](O)[C@H]1C(=O)N2C(C(=O)O)=C(S[C@@H]3CN[C@H](C(=O)N(C)C)C3)[C@H](C)[C@H]12 [meropenem]
B. fragilis
  MPC: 0.5 µg/mL
B. fragilis; selection 4X MIC, 0.5 μg/mL
  Average Count: 0 CFU
  Count 1: 0 CFU
  Count 2: 0 CFU
  Spontaneous Mutation Frequency: ≤1.48 × 10^−10
B. fragilis; selection 8X MIC, 1 μg/mL
  Average Count: 0 CFU
  Count 1: 0 CFU
  Count 2: 0 CFU
  Spontaneous Mutation Frequency: ≤1.48 × 10^−10
B. ovatus
  MPC: 0.5 µg/mL
B. ovatus; selection 4X MIC, 0.5 μg/mL
  Average Count: 0 CFU
  Count 1: 0 CFU
  Count 2: 0 CFU
  Spontaneous Mutation Frequency: ≤1.05 × 10^−10
B. ovatus; selection 8X MIC, 1 μg/mL
  Average Count: 0 CFU
  Count 1: 0 CFU
  Count 2: 0 CFU
  Spontaneous Mutation Frequency: ≤1.05 × 10^−10
B. fragilis ATCC 25285 [4]
  time-kill kinetics outcome (bactericidal = ≥3 log reduction in CFU per mL): rapid bactericidal activity against this organism at 6, 24 and 48 hr at 8×MIC, 24 and 48 hr at 4×MIC and at 24 hr at 2×MIC
B. ovatus MMX 3503
  time-kill kinetics outcome (bactericidal = ≥3 log reduction in CFU per mL): bactericidal at 8×MIC at 6, 24 and 48 hr; at 4×MIC at 24 and 48 hr; and at 2×MIC at 24 hr with rebound growth at 48 hr
Bacteroides spp. [5]
  colonies on selection plates: No Streptococcus spp. or Bacteroides spp. colonies were selected
E. coli ATCC 25922
  CLSI QC range (MIC): (0.008-0.06)^1 μg/mL
B. fragilis ATCC 25285 [2]
  CLSI QC range (MIC): (0.03-0.25)^1 μg/mL
[6]
  CLSI QC range (agar MIC): 0.008 to 0.06 µg/mL
[7]
  CLSI QC range (agar MIC): 0.03 to 0.25 µg/mL
[8]
  CLSI QC range (agar MIC): 0.03 to 0.25 µg/mL
[1]
  MIC, CLSI QC range: (0.03-0.25)^1 μg/mL
Enterobacteriaceae [9]
  % S: 98.3%
  MIC50: ≤0.12 µg/mL
Enterobacteriaceae [10]
  % S: 97.2%
  MIC50: 0.03 µg/mL (≈ 0.0782 µM)
  MIC90: 0.12 µg/mL (≈ 0.313 µM)
[11]
  Rat oral exposure (Dose): ~4%

## CO/N=C(\C(=O)N[C@@H]1C(=O)N2C(C(=O)O)=C(CSc3nc(=O)c(=O)[nH]n3C)CS[C@H]12)c1csc(N)n1 [ceftriaxone]
[3]; MIC 4 μg/mL
  Cumulative percentage of isolates inhibited at MIC: 40.0%
Bacteroides spp. [5]; B. vulgatus ATCC 8482
  MPC (mutation prevention concentration): 32 µg/mL
Bacteroides spp. [5]; B. vulgatus ATCC 8482, 4× the MIC
  Spontaneous Mutation Frequency: > 8.69×10^−8
Bacteroides spp. [5]; B. vulgatus ATCC 8482, 8× the MIC
  Spontaneous Mutation Frequency: ≤ 1.74×10^−10
E. coli ATCC 25922
  CLSI QC range (MIC): (0.03-0.12) μg/mL
[6]
  CLSI QC range (agar MIC): 0.03 to 0.12 µg/mL
[7]
  CLSI QC range (agar MIC): 0.03 to 0.12 µg/mL
[8]
  CLSI QC range (agar MIC): 32 to 128 µg/mL
Enterobacteriaceae [9]
  % S: 87.5%
  MIC50: ≤1 µg/mL
  MIC90: 8 µg/mL (≈ 14.4 µM)
Bacteroides spp. [12]
  MIC50: >128 µg/mL
  MIC90: >128 µg/mL
[11]; 50 mg/kg
  Rat oral exposure lower than iv: mg/kg (200-fold
  Rat oral exposure (Dose): 0.9 μg*hr/mL at 50
